Like-named read-outs stand apart in the source and are kept apart here.
Test: Plasma levels of 9-deoxo-16,16-dimethyl-9-methylene-PGE2 by radioimmunoassay after insertion of a suppository
Format: in vivo, Rhesus monkeys (Macaca mulatta)
Settings: for concentration at 0.25 h / concentration at 1 h / concentration at 1.5 h / concentration at 2 h / concentration at 3 h / concentration at 4 h / concentration at 6 h / concentration at 24 h / concentration at 0.5 h: rhesus monkey, plasma, 30 mg, read-out: Drug Levels
Excerpt: A. Midtrimester pregnant female Rhesus monkeys (Macaca mulatta) are used. (The first day of menstrual bleeding is designated Day 1 of the menstrual cycle; the first day a female is placed with a male for breeding is designated Day 1 of pregnancy. Pregnancy is confirmed by abdominal palpation of the uterus.)
Blood samples are collected into heparinized syringes at specified times following insertion of a suppository in pregnant or non- pregnant monkeys. Plasma is extracted and assayed for 9-deoxo-16,16-dimethyl-9-methylene-PGE2 content by radioimmunoassay.
C. Six suppository lots are prepared (4), each containing 9- deoxo-16,16-dimethyl-9-methylene-PGE2 or its crystalline potassium salt (Examples 1 and 2). Two lots are made with Witepsol H15 alone as the suppository base, two with Witepsol HIS wax plus 2% colloidal silicon dioxide (CSD) and two with Witepsol H15 plus 2% CSD plus 10% triacetin. Suppositories are prepared using Witepsol H15 suppository wax. Free acid or potassium salt is dispersed in the hot wax using a homogenizer. Two percent colloidal silicon dioxide (CSD) is mixed in by further homogenization. In the third formulation, triacetin (10%) is added before the CSD and then homogenized for one minute. Suppositories are formed in 800 mg aluminum molds and are stored at 4°C until used.
D. The plasma levels of 9-deoxo-16,16-d1methy1-9-methy1ene-PGE2 in monkeys treated with 6 formulations containing either 9-deoxo-16,16-dimethyl-9-methylene-PGE2 free acid or potassium salt are shown in Tables 1-6. In general, higher blood levels are measured in pregnant Rhesus monkeys than in non-pregnant monkeys.

[1] = Monkey #1, 30 mg Free Acid in H15 Suppositories
[2] = Monkey #2, 30 mg Free Acid in H15 Suppositories
[3] = Monkey #3 (pregnant animal with uterine recording), 30 mg Free Acid in H15 Suppositories
[4] = Monkey #7, 30 mg Free Acid in H15 Plus 2% CSD Suppositories
[5] = Monkey #8, 30 mg Free Acid in H15 Plus 2% CSD Suppositories
[6] = Monkey #9 (pregnant animal with uterine recording), 30 mg Free Acid in H15 Plus 2% CSD Suppositories
[7] = Monkey #13, 30 mg Free Acid in H15 Plus 2% CSD + 10% Triacetin Suppositories
[8] = Monkey #14, 30 mg Free Acid in H15 Plus 2% CSD + 10% Triacetin Suppositories
[9] = Monkey #15 (pregnant animal with uterine recording), 30 mg Free Acid in H15 Plus 2% CSD + 10% Triacetin Suppositories

bioavailability (drug plasma levels and uterine activity), free acid versus potassium salt (Rhesus monkeys, 30 mg (acid equivalents) per dose in three suppository formulations): equally bioavailable | concentration at 0.25 h [1]: 5.14 ng/mL | concentration at 1 h (Monkey #1, 1.0 Hours, 30 mg Free Acid in H15 Suppositories): 4.39 ng/mL | concentration at 1.5 h [1]: 7.89 ng/mL | concentration at 2 h (Monkey #1, 2.0 Hours, 30 mg Free Acid in H15 Suppositories): 4.16 ng/mL | concentration at 3 h (Monkey #1, 3.0 Hours, 30 mg Free Acid in H15 Suppositories): 0.23 ng/mL | concentration at 4 h (Monkey #1, 4.0 Hours, 30 mg Free Acid in H15 Suppositories): 7.43 ng/mL | concentration at 6 h (Monkey #1, 6.0 Hours, 30 mg Free Acid in H15 Suppositories): 10.1 ng/mL | concentration at 24 h (Monkey #1, 24.0 Hours, 30 mg Free Acid in H15 Suppositories): 7.68 ng/mL | concentration at 0.5 h (Monkey #1, .5 Hours, 30 mg Free Acid in H15 Suppositories): 1.69 ng/mL | concentration at 0.25 h [2]: 0.61 ng/mL | concentration at 1.5 h [2]: 3.35 ng/mL | concentration at 2 h (Monkey #2, 2.0 Hours, 30 mg Free Acid in H15 Suppositories): 5.56 ng/mL | concentration at 3 h (Monkey #2, 3.0 Hours, 30 mg Free Acid in H15 Suppositories): 13 ng/mL | concentration at 4 h (Monkey #2, 4.0 Hours, 30 mg Free Acid in H15 Suppositories): 14.7 ng/mL | concentration at 6 h (Monkey #2, 6.0 Hours, 30 mg Free Acid in H15 Suppositories): 17.3 ng/mL | concentration at 24 h (Monkey #2, 24.0 Hours, 30 mg Free Acid in H15 Suppositories): 4.97 ng/mL | concentration at 0.25 h [3]: 142 ng/mL | concentration at 1 h (Monkey #3 (pregnant animal with uterine recording), 1.0 Hours, 30 mg Free Acid in H15 Suppositories): 93.9 ng/mL | concentration at 1.5 h [3]: 66.8 ng/mL | concentration at 2 h (Monkey #3 (pregnant animal with uterine recording), 2.0 Hours, 30 mg Free Acid in H15 Suppositories): 60.8 ng/mL | concentration at 3 h (Monkey #3 (pregnant animal with uterine recording), 3.0 Hours, 30 mg Free Acid in H15 Suppositories): 56.1 ng/mL | concentration at 4 h (Monkey #3 (pregnant animal with uterine recording), 4.0 Hours, 30 mg Free Acid in H15 Suppositories): 35.7 ng/mL | concentration at 6 h (Monkey #3 (pregnant animal with uterine recording), 6.0 Hours, 30 mg Free Acid in H15 Suppositories): 13.7 ng/mL | concentration at 24 h (Monkey #3 (pregnant animal with uterine recording), 24.0 Hours, 30 mg Free Acid in H15 Suppositories): 5.67 ng/mL | concentration at 0.5 h (Monkey #3 (pregnant animal with uterine recording), .5 Hours, 30 mg Free Acid in H15 Suppositories): 63.6 ng/mL | concentration at 0.25 h [4]: 39.2 ng/mL | concentration at 0.5 h (Monkey #7, 0.5 Hours, 30 mg Free Acid in H15 Plus 2% CSD Suppositories): 44.5 ng/mL | concentration at 1 h (Monkey #7, 1.0 Hours, 30 mg Free Acid in H15 Plus 2% CSD Suppositories): 63.9 ng/mL | concentration at 1.5 h [4]: 42.2 ng/mL | concentration at 2 h (Monkey #7, 2 Hours, 30 mg Free Acid in H15 Plus 2% CSD Suppositories): 37 ng/mL | concentration at 3 h (Monkey #7, 3 Hours, 30 mg Free Acid in H15 Plus 2% CSD Suppositories): 16.9 ng/mL | concentration at 4 h (Monkey #7, 4 Hours, 30 mg Free Acid in H15 Plus 2% CSD Suppositories): 13.2 ng/mL | concentration at 6 h (Monkey #7, 6 Hours, 30 mg Free Acid in H15 Plus 2% CSD Suppositories): 6.5 ng/mL | concentration at 24 h (Monkey #7, 24 Hours, 30 mg Free Acid in H15 Plus 2% CSD Suppositories): 4.01 ng/mL | concentration at 0.25 h [5]: 51.4 ng/mL | concentration at 0.5 h (Monkey #8, 0.5 Hours, 30 mg Free Acid in H15 Plus 2% CSD Suppositories): 134 ng/mL | concentration at 1 h (Monkey #8, 1.0 Hours, 30 mg Free Acid in H15 Plus 2% CSD Suppositories): 88.2 ng/mL | concentration at 1.5 h [5]: 61.1 ng/mL | concentration at 2 h (Monkey #8, 2 Hours, 30 mg Free Acid in H15 Plus 2% CSD Suppositories): 78.3 ng/mL | concentration at 3 h (Monkey #8, 3 Hours, 30 mg Free Acid in H15 Plus 2% CSD Suppositories): 29.1 ng/mL | concentration at 4 h (Monkey #8, 4 Hours, 30 mg Free Acid in H15 Plus 2% CSD Suppositories): 12.4 ng/mL | concentration at 6 h (Monkey #8, 6 Hours, 30 mg Free Acid in H15 Plus 2% CSD Suppositories): 2.49 ng/mL | concentration at 24 h (Monkey #8, 24 Hours, 30 mg Free Acid in H15 Plus 2% CSD Suppositories): 15.7 ng/mL | concentration at 0.25 h [6]: 60.7 ng/mL | concentration at 0.5 h (Monkey #9 (pregnant animal with uterine recording), 0.5 Hours, 30 mg Free Acid in H15 Plus 2% CSD Suppositories): 52.2 ng/mL | concentration at 1 h (Monkey #9 (pregnant animal with uterine recording), 1.0 Hours, 30 mg Free Acid in H15 Plus 2% CSD Suppositories): 63.1 ng/mL | concentration at 1.5 h [6]: 62.8 ng/mL | concentration at 2 h (Monkey #9 (pregnant animal with uterine recording), 2 Hours, 30 mg Free Acid in H15 Plus 2% CSD Suppositories): 62.9 ng/mL | concentration at 3 h (Monkey #9 (pregnant animal with uterine recording), 3 Hours, 30 mg Free Acid in H15 Plus 2% CSD Suppositories): 40.2 ng/mL | concentration at 4 h (Monkey #9 (pregnant animal with uterine recording), 4 Hours, 30 mg Free Acid in H15 Plus 2% CSD Suppositories): 57.8 ng/mL | concentration at 6 h (Monkey #9 (pregnant animal with uterine recording), 6 Hours, 30 mg Free Acid in H15 Plus 2% CSD Suppositories): 32 ng/mL | concentration at 24 h (Monkey #9 (pregnant animal with uterine recording), 24 Hours, 30 mg Free Acid in H15 Plus 2% CSD Suppositories): 21 ng/mL | concentration at 0.25 h [7]: 12.6 ng/mL | concentration at 0.5 h (Monkey #13, 0.5 Hours, 30 mg Free Acid in H15 Plus 2% CSD + 10% Triacetin Suppositories): 9.25 ng/mL | concentration at 1 h (Monkey #13, 1 Hours, 30 mg Free Acid in H15 Plus 2% CSD + 10% Triacetin Suppositories): 2.8 ng/mL | concentration at 1.5 h [7]: 3.09 ng/mL | concentration at 2 h (Monkey #13, 2 Hours, 30 mg Free Acid in H15 Plus 2% CSD + 10% Triacetin Suppositories): 5.46 ng/mL | concentration at 3 h (Monkey #13, 3 Hours, 30 mg Free Acid in H15 Plus 2% CSD + 10% Triacetin Suppositories): 15.1 ng/mL | concentration at 4 h (Monkey #13, 4 Hours, 30 mg Free Acid in H15 Plus 2% CSD + 10% Triacetin Suppositories): 22.5 ng/mL | concentration at 6 h (Monkey #13, 6 Hours, 30 mg Free Acid in H15 Plus 2% CSD + 10% Triacetin Suppositories): 23.8 ng/mL | concentration at 24 h (Monkey #13, 24 Hours, 30 mg Free Acid in H15 Plus 2% CSD + 10% Triacetin Suppositories): 26 ng/mL | concentration at 0.25 h [8]: 18.8 ng/mL | concentration at 0.5 h (Monkey #14, 0.5 Hours, 30 mg Free Acid in H15 Plus 2% CSD + 10% Triacetin Suppositories): 36 ng/mL | concentration at 1 h (Monkey #14, 1 Hours, 30 mg Free Acid in H15 Plus 2% CSD + 10% Triacetin Suppositories): 25.1 ng/mL | concentration at 1.5 h [8]: 32 ng/mL | concentration at 2 h (Monkey #14, 2 Hours, 30 mg Free Acid in H15 Plus 2% CSD + 10% Triacetin Suppositories): 28.7 ng/mL | concentration at 3 h (Monkey #14, 3 Hours, 30 mg Free Acid in H15 Plus 2% CSD + 10% Triacetin Suppositories): 20.2 ng/mL | concentration at 4 h (Monkey #14, 4 Hours, 30 mg Free Acid in H15 Plus 2% CSD + 10% Triacetin Suppositories): 16.6 ng/mL | concentration at 6 h (Monkey #14, 6 Hours, 30 mg Free Acid in H15 Plus 2% CSD + 10% Triacetin Suppositories): 16.2 ng/mL | concentration at 24 h (Monkey #14, 24 Hours, 30 mg Free Acid in H15 Plus 2% CSD + 10% Triacetin Suppositories): 12.9 ng/mL | concentration at 0.25 h [9]: 119 ng/mL | concentration at 0.5 h (Monkey #15 (pregnant animal with uterine recording), 0.5 Hours, 30 mg Free Acid in H15 Plus 2% CSD + 10% Triacetin Suppositories): 154 ng/mL | concentration at 1 h (Monkey #15 (pregnant animal with uterine recording), 1 Hours, 30 mg Free Acid in H15 Plus 2% CSD + 10% Triacetin Suppositories): 154 ng/mL | concentration at 1.5 h [9]: 26.8 ng/mL | concentration at 2 h (Monkey #15 (pregnant animal with uterine recording), 2 Hours, 30 mg Free Acid in H15 Plus 2% CSD + 10% Triacetin Suppositories): 44.8 ng/mL | concentration at 3 h (Monkey #15 (pregnant animal with uterine recording), 3 Hours, 30 mg Free Acid in H15 Plus 2% CSD + 10% Triacetin Suppositories): 65.9 ng/mL | concentration at 4 h (Monkey #15 (pregnant animal with uterine recording), 4 Hours, 30 mg Free Acid in H15 Plus 2% CSD + 10% Triacetin Suppositories): 22.1 ng/mL | concentration at 6 h (Monkey #15 (pregnant animal with uterine recording), 6 Hours, 30 mg Free Acid in H15 Plus 2% CSD + 10% Triacetin Suppositories): 13 ng/mL | concentration at 24 h (Monkey #15 (pregnant animal with uterine recording), 24 Hours, 30 mg Free Acid in H15 Plus 2% CSD + 10% Triacetin Suppositories): 2.76 ng/mL
SMILES: C=C1C[C@@H](O)[C@H](/C=C/[C@@H](O)C(C)(C)CCCC)[C@H]1C/C=C\CCCC(=O)O [Free Acid, 9-deoxo-16,16-dimethyl-9-methylene-PGE2]
